US20250002475A1 (EPICS THERAPEUTICS, priority 2023, published 2025)

What was measured:
Kasumi-1 cells = experiment: Kasumi-1 cellular viability assay (ATP-Lite, 72 h); assay type: cell-based; details: Homo sapiens, ATP-Lite luminescence, % viability relative to DMSO
Procedure: Kasumi-1 cell line was purchased from ATCC (ATCC® CRL2724™). Cells were isolated from the peripheral blood of a child with acute myeloid leukemia (AML FAB M2) (in 2nd relapse after bone marrow transplantation) in 1989. Most cells are round. Kasumi-1 cells are observed to grow individually or in small clumps in suspension.
Kasumi-1 cells are cultured in RPMI-1640 (Gibco A10491-01) containing 10% heat-inactivated and 0.22 μm filtered FBS (Gibco 10270-106) at a density of 3E+5 and 3E+6 viable cell/mL following the certificate of analysis.
(§1) Cellular viability assay: Kasumi-1 cells were plated (50 μL) in 96-well cell culture microplates (PS, F-Bottom black, Cellstar, Greiner 655086) at final concentration of 15000 cells/well. The compounds of the invention were dissolved in DMSO, and a titration curve was generated at 1000× final concentration. Compounds were then diluted 500× in tissue culture medium (RPMI-1640, 10% FBS). Then 50 μl of test compound were added to Kasumi-1 cells in a final DMSO concentration of 0.1%, final volume 100 μl. A gas permeable sealing membrane was applied to the plate to prevent evaporation (Breathe-Easy sealing membrane, Sigma Z380059-1PK) and cells were incubated for 72 h at 37° C., 5% CO2, 80% RH. After 72h of treatment, the plates were taken out of the incubator and left for a few minutes at room temperature. 100 μl of the reconstituted reagent ATP-Lite One Step (Perkin Elmer, 6016739) was added to each well. The plates were shaken for 2 min at 700 rpm and placed in the dark for 10 minutes at room temperature before measurement of luminescence intensity with Envision instrument. The raw data were expressed in RLU. Results were expressed in % of viability relative to DMSO control and an IC50 was calculated based on the concentration-response profile of individual compounds.

Caov-3 cells = experiment: Caov-3 cellular viability assay (ATP-Lite, 72 h); assay type: cell-based; details: Homo sapiens, ATP-Lite luminescence, % viability relative to DMSO
Procedure: Caov-3 cell line was purchased from ATCC (ATCC® HTB-75™). Cells were isolated from the ovary of a ovarian cancer patient.
Caov-3 cells are cultured in DMEM (ATCC 30-2002) containing 10% heat-inactivated and 0.22 μm filtered FBS (Gibco 10270-106). The cells are seeded at 2.5E+4cell/cm^2 within the recommended subcultivation ratio of 1:3 to 1:6, as stated on the certificate of analysis issues by the provider of the cells.
as §1, with “assay: Caov-3” for “assay: Kasumi-1”, “of 10000” for “of 15000”, “to Caov-3” for “to Kasumi-1”, “After 72 h” for “After 72h”, “6016739) were” for “6016739) was”

[1] = molecular target: T1, recombinant METTL3/METTL14 complex (Homo sapiens, UniProt Q86U44); experiment: METTL3/14 Scintillation Proximity Assay (SPA), RNA methyltransferase activity; assay type: biochemical; details: 5.31 nM METTL3/14 complex, 250 nM RNA substrate, 1 μM 3H-SAM, 90 min; for compounds marked * best of the two separated forms
T1 construct: purchased Active Motif 311970; host or cells: Sf9 cells
T1 sequence (Q86U44 whole entry): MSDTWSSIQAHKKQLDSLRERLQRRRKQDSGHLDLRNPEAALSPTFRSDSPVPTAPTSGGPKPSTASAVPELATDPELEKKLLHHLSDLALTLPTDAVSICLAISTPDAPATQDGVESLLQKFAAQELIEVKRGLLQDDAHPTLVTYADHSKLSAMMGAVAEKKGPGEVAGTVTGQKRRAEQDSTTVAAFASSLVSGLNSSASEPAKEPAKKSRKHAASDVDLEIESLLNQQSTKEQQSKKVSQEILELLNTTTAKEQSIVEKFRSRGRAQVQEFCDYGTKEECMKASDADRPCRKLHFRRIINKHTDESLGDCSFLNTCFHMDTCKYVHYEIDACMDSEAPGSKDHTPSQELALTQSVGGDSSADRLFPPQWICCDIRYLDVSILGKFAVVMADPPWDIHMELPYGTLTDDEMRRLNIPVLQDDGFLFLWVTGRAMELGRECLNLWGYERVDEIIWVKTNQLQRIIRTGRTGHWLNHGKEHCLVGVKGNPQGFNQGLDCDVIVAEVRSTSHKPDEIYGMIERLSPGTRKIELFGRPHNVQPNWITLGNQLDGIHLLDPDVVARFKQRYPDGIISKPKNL
T1 sequence (Q9HCE5 whole entry partner): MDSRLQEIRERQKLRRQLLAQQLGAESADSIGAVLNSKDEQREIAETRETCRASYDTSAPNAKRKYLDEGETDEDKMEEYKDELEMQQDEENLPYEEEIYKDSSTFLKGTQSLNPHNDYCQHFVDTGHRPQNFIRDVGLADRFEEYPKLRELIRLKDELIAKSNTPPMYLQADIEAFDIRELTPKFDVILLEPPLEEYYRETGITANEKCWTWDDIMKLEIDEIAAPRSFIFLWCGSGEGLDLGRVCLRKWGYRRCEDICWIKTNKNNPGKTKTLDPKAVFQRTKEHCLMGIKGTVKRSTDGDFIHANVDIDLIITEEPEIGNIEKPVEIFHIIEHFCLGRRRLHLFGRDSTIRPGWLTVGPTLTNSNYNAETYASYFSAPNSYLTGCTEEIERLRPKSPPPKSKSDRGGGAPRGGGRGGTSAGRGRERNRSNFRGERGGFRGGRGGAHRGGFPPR

SMILES | IC50 (Kasumi-1 cells) [nM] | IC50 (Caov-3 cells) [nM] | IC50 [1] [nM]
O=C(Nc1cc(=O)n2ccccc2n1)C1(c2ccc(N3CCC[C@@H](NCC4CCC4)C3)cn2)COC1 [Compound 239, (R)-3-(5-(3-((cyclobutylmethyl)amino)piperidin-1-yl)pyridin-2-yl)-N-(4-oxo-4H-pyrido[1,2-a]pyrimidin-2-yl)oxetane-3-carboxamide] | ≤ 500 | ≤ 500 | ≤ 50
CC(n1cc(-c2cc(N3CCCC3)cnn2)nn1)n1ccc(N2CCC[C@@H](NCC3CC3)C2)cc1=O (single isomer, unassigned) [Compound 206] | 500 to 5000 | ≤ 500 | ≤ 50
O=C(NCc1ccc(N2CCC[C@@H](NCC3CCC3)C2)nn1)c1cc(=O)n2ccsc2n1 [Compound 010, (R)-N-((6-(3-((cyclobutylmethyl)amino)piperidin-1-yl)pyridazin-3-yl)methyl)-5-oxo-5H-thiazolo[3,2-a]pyrimidine-7-carboxamide] | > 5000 | > 5000 | 50 to 500
CC(n1cc(-c2cncc(N3CC[C@@H](F)C3)n2)nn1)n1ccc(N2CCC[C@@H](NCC3CC3)C2)cc1=O (single isomer, unassigned) [Compound 245] | ≤ 500 | ≤ 500 | ≤ 50
CC(n1cc(-c2cncc(N(C)C)c2)nn1)n1ccc(N2CCC[C@@H](NCC3CC3)C2)cc1=O (single isomer, unassigned) [Compound 142] | ≤ 500 | ≤ 500 | ≤ 50
COc1cncc(-n2cc(Cn3ccc(N4CCC[C@@H](NCC5CCC5)C4)cc3=O)nn2)c1 [Compound 075, (R)-4-(3-((cyclobutylmethyl)amino)piperidin-1-yl)-1-((1-(5-methoxypyridin-3-yl)-1H-1,2,3-triazol-4-yl)methyl)pyridin-2(1H)-one] | > 5000 | 500 to 5000 | ≤ 50
O=C(Nc1cncc(N2CCCC2)n1)C1(c2ccc(N3CCC[C@@H](NCC4CC4)C3)cn2)COC1 [Compound 248, (R)-3-(5-(3-((cyclopropylmethyl)amino)piperidin-1-yl)pyridin-2-yl)-N-(6-(pyrrolidin-1-yl)pyrazin-2-yl)oxetane-3-carboxamide] | ≤ 500 | ≤ 500 | ≤ 50
FC1(F)CC(CN[C@@H]2CCCN(c3ccc(C4(n5cc(-c6cncc(C7CC7)c6)nn5)COC4)nc3)C2)C1 [Compound 341, (R)-1-(6-(3-(4-(5-cyclopropylpyridin-3-yl)-1H-1,2,3-triazol-1-yl)oxetan-3-yl)pyridin-3-yl)-N-((3,3-difluorocyclobutyl)methyl)piperidin-3-amine] | ≤ 500 | ≤ 500 | ≤ 50
CC(c1ccc(N2CCC[C@@H](NCC3CC3)C2)nn1)c1nnc(-c2cncc(C3CC3)c2)s1 (stereo partly drawn) [Compound 358, (3R)—N-(cyclopropylmethyl)-1-(6-(1-(5-(5-cyclopropylpyridin-3-yl)-1,3,4-thiadiazol-2-yl)ethyl)pyridazin-3-yl)piperidin-3-amine] | 500 to 5000 | ≤ 500 | ≤ 50
COc1cc(-c2cn(Cc3ccc(N4CCC[C@@H](NCC(C)C)C4)nn3)nn2)c2cn[nH]c2c1 [Compound 031, (R)-N-isobutyl-1-(6-((4-(6-methoxy-1H-indazol-4-yl)-1H-1,2,3-triazol-1-yl)methyl)pyridazin-3-yl)piperidin-3-amine] | 500 to 5000 | 500 to 5000 | ≤ 50
COc1cc(-c2cn(Cc3ccc(N4CCC[C@@H](NCC56CC(F)(C5)C6)C4)nn3)nn2)c2cn[nH]c2c1 [Compound 018, (R)-N-((3-fluorobicyclo[1.1.1]pentan-1-yl)methyl)-1-(6-((4-(6-methoxy-1H-indazol-4-yl)-1H-1,2,3-triazol-1-yl)methyl)pyridazin-3-yl)piperidin-3-amine] | 500 to 5000 | ≤ 500 | ≤ 50
CC1(CN[C@@H]2CCCN(c3ccc(C4(C(=O)Nc5cc(=O)n6ccccc6n5)COC4)nc3)C2)CC1 [Compound 331, (R)-3-(5-(3-(((1-methylcyclopropyl)methyl)amino)piperidin-1-yl)pyridin-2-yl)-N-(4-oxo-4H-pyrido[1,2-a]pyrimidin-2-yl)oxetane-3-carboxamide] | ≤ 500 | ≤ 500 | ≤ 50
COc1cc(-c2cn(Cc3ccc(N4CCCC(NCC56CC(C)(C5)C6)C4)nn3)nn2)c2cn[nH]c2c1 (stereo not drawn) [Compound 020, 1-(6-((4-(6-methoxy-1H-indazol-4-yl)-1H-1,2,3-triazol-1-yl)methyl)pyridazin-3-yl)-N-((3-methylbicyclo[1.1.1]pentan-1-yl)methyl)piperidin-3-amine] | 500 to 5000 | 500 to 5000 | ≤ 50
CC(n1cc(-c2cncc(N3CC4(C3)CC4(F)F)c2)nn1)n1ccc(N2CCC[C@@H](NCC3CC3)C2)cc1=O (single isomer, unassigned) [Compound 211] | ≤ 500 | ≤ 500 | ≤ 50
CC(C(=O)Nc1cncc(N2CCCC2)c1)n1ccc(N2CCC[C@@H](NCC3CCC3)C2)cc1=O (stereo partly drawn) [Compound 208, 2-(4-((R)-3-((cyclobutylmethyl)amino)piperidin-1-yl)-2-oxopyridin-1(2H)-yl)-N-(5-(pyrrolidin-1-yl)pyridin-3-yl)propanamide] | 500 to 5000 | 500 to 5000 | ≤ 50
CC(c1ccc(N2CCC[C@@H](NCC3CC3)C2)cn1)c1nnc(-c2cncc(C3CC3)c2)s1 (stereo partly drawn) [Compound 359, (3R)—N-(cyclopropylmethyl)-1-(6-(1-(5-(5-cyclopropylpyridin-3-yl)-1,3,4-thiadiazol-2-yl)ethyl)pyridin-3-yl)piperidin-3-amine] | ≤ 500 | ≤ 500 | ≤ 50
CC(n1cc(-c2cncc(N3CCCC3)c2)nn1)n1ccc(N2CCC[C@@H](NCC3CC3)C2)cc1=O (single isomer, unassigned) [Compound 176] | ≤ 500 | ≤ 500 | ≤ 50
CC(n1cc(-c2cncc(-n3ccnc3)c2)nn1)n1ccc(N2CCC[C@@H](NCC3CC3)C2)cc1=O (single isomer, unassigned) [Compound 218] | > 5000 | 500 to 5000 | ≤ 50
COc1cc(-c2cn(Cc3ccc(N4CCC[C@@H](N(C)CC5CCC5)C4)nn3)nn2)c2cn[nH]c2c1 [Compound 022, (R)-N-(cyclobutylmethyl)-1-(6-((4-(6-methoxy-1H-indazol-4-yl)-1H-1,2,3-triazol-1-yl)methyl)pyridazin-3-yl)-N-methylpiperidin-3-amine] | 500 to 5000 | > 5000 | 
CC(c1ccc(N2CCC[C@@H](NCC3CC3)C2)nn1)c1nnc(-c2cncc(N3CCCC3)n2)s1 (stereo partly drawn) [Compound 353, (3R)—N-(cyclopropylmethyl)-1-(6-(1-(5-(6-(pyrrolidin-1-yl)pyrazin-2-yl)-1,3,4-thiadiazol-2-yl)ethyl)pyridazin-3-yl)piperidin-3-amine] |  | ≤ 500 | ≤ 50
COc1cc(-c2cn(Cc3ccc(N4CCC[C@@H](NC5CCCC5)C4)nn3)nn2)c2cn[nH]c2c1 [Compound 023, (R)-N-cyclopentyl-1-(6-((4-(6-methoxy-1H-indazol-4-yl)-1H-1,2,3-triazol-1-yl)methyl)pyridazin-3-yl)piperidin-3-amine] | 500 to 5000 | 500 to 5000 | 
